Source: patent US8993514B1 (The Florida State University Research Foundation, Inc., priority 2011, dated 2015)
Where “and” joins values, the source holds several entries; their conditions need not be identical. Equal entries are not always repeated. Where two headings read alike, the source gives them in different places.

Legend:
[1] = type: binding; settings: for hemin binding indicated by decrease of fluorescence intensity as hemin is added: pH 7.4; for estimated number of hemin molecules bound to the respective peptide: 25° C.
[2] = type: binding; settings: 1% DMSO
[3] = tested on: cultured neurons and astrocytes; settings: cited from earlier work
[4] = tested on: brain edema after traumatic brain injury; settings: in vivo, 8 mg/kg

Substance | hemin binding indicated by decrease of fluorescence intensity as hemin is added [1] | estimated number of hemin molecules bound to the respective peptide ([1]; pH = 5.0) | estimated number of hemin molecules bound to the respective peptide ([1]; pH = 7.4) | hemin binding indicated by SPR response increasing with hemin concentration [2] | hemin concentration sufficient to kill 60%-70% of cultured neurons and astrocytes [3] [µM] | % water content of brain tissue from impacted region, individual rat [4] | % water content of brain tissue from impacted region, average ([4]; rat) [%] | effect on brain swelling ([4]; rat)
GQPHGGGWGQPHGGGWGQPHGGGWGQPHGGGWGQGGG (Synthetically generated peptide) [SEQ ID NO: 6, 4-repeat peptide of the octarepeat region with additional flanking residues] | hemin forms a chemical bond | 4.0 | 2.0 | hemin binds to the respective peptide |  |  |  | 
hemin |  |  |  |  | 3 to 30 |  |  | 
PHGGGWGQPHGGGWGQ [SEQ ID NO: 3] | hemin forms a chemical bond |  |  |  |  | 80.93% and 77.24% and 80.98% | 79.72 | reduced the brain swelling
